Values after ≈ are worked out from the molar mass of the structure shown. Read-outs that look alike come from different tables or passages of the source.
Key:
E. faecalis ATCC 29212 = assay: direct antimicrobial activity (disc-diffusion, MIC, MBC); format: cell-based; conditions: Enterococcus faecalis, ATCC29212
Outline: (§1)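 EUCAST/CLSI methods: disc diffusion at 0.4 mg compound/disc, broth MIC, then MBC (bacteria) or MFC (yeast). DMSO vehicle.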

E. faecium ATCC 6057 = assay: as above; format: cell-based; conditions: Enterococcus faecium, ATCC6057
Outline: as §1

[1] = tested on: S. aureus ATCC 43300 MRSA; assay: as above; format: cell-based; conditions: Staphylococcus aureus; for zone of inhibition at 0.4 mg/disc: 0.4 mg per disc, 9 mm disc (linezolid 0.03 mg, 6 mm disc), - no zone, read-out: Diameter of inhibition zone
Outline: as §1

S. aureus ATCC 6538P = assay: as above; format: cell-based; conditions: Staphylococcus aureus, ATCC6538P; for zone of inhibition at 0.4 mg/disc: 0.4 mg per disc, 9 mm disc (linezolid 0.03 mg, 6 mm disc), - no zone, read-out: Diameter of inhibition zone
Outline: as §1

[2] = tested on: S. epidermidis ATCC 12228; assay: as above; format: cell-based; conditions: Staphylococcus epidermidis, ATCC12228
Outline: as §1

[3] = tested on: C. parapsilosis ATCC 22019; assay: antifungal activity (disc-diffusion, MIC, MFC); format: cell-based, Candida parapsilosis; conditions: Lodderomyces parapsilosis, ATCC22019; for zone of inhibition at 0.4 mg/disc: 0.4 mg per disc, 9 mm disc (fluconazole 0.025 mg, 6 mm disc), - no zone, read-out: Diameter of inhibition zone; for MIC: fluconazole by Etest
Outline: as §1

[4] = tested on: C. guilliermondii IBA 155; assay: antifungal activity (disc-diffusion, MIC, MFC); format: cell-based, Candida guilliermondii; conditions: Meyerozyma guilliermondii, IBA155; for zone of inhibition at 0.4 mg/disc: 0.4 mg per disc, 9 mm disc (fluconazole 0.025 mg, 6 mm disc), - no zone, read-out: Diameter of inhibition zone; for MIC: fluconazole by Etest
Outline: as §1

C. krusei ATCC 6258 = assay: antifungal activity (disc-diffusion, MIC, MFC); format: cell-based, Candida krusei; conditions: Pichia kudriavzevii, ATCC6258; for zone of inhibition at 0.4 mg/disc: 0.4 mg per disc, 9 mm disc (fluconazole 0.025 mg, 6 mm disc), - no zone, read-out: Diameter of inhibition zone; for MIC: fluconazole by Etest
Outline: as §1

C. albicans ATCC 90028 = assay: antifungal activity (disc-diffusion, MIC, MFC); format: cell-based; conditions: Candida albicans, ATCC90028; for zone of inhibition at 0.4 mg/disc: 0.4 mg per disc, 9 mm disc (fluconazole 0.025 mg, 6 mm disc), - no zone, read-out: Diameter of inhibition zone; for MIC: fluconazole by Etest
Outline: as §1

C. tropicalis ATCC 750 = assay: antifungal activity (disc-diffusion, MIC, MFC); format: cell-based; conditions: Candida tropicalis, ATCC750; for zone of inhibition at 0.4 mg/disc: 0.4 mg per disc, 9 mm disc (fluconazole 0.025 mg, 6 mm disc), - no zone, read-out: Diameter of inhibition zone; for MIC: fluconazole by Etest
Outline: as §1

C. tropicalis IBA 171 = assay: antifungal activity (disc-diffusion, MIC, MFC); format: cell-based; conditions: Candida tropicalis, IBA171; for zone of inhibition at 0.4 mg/disc: 0.4 mg per disc, 9 mm disc (fluconazole 0.025 mg, 6 mm disc), - no zone, read-out: Diameter of inhibition zone; for MIC: fluconazole by Etest
Outline: as §1

S. cerevisiae ATCC 9763 = assay: antifungal activity (disc-diffusion, MIC, MFC); format: cell-based; conditions: Saccharomyces cerevisiae, ATCC9763; for zone of inhibition at 0.4 mg/disc: 0.4 mg per disc, 9 mm disc (fluconazole 0.025 mg, 6 mm disc), - no zone, read-out: Diameter of inhibition zone; for MIC: fluconazole by Etest
Outline: as §1

[5] = tested on: K. pneumoniae ATCC BAA 1705 KPC-2-positive; assay: combination disc test CDT-KPC; format: cell-based; conditions: Klebsiella pneumoniae, BAA1705, read-out: Diameter of inhibition zone, MEM-10 disc with agent; for zone of inhibition at 100 µg/disc: agent 0.1 mg per disc
[6] = tested on: P. aeruginosa MUW 700 cAmpC-positive; assay: combination disc test CDT-AmpC; format: cell-based; conditions: Pseudomonas aeruginosa, read-out: Diameter of inhibition zone, CAZ-30 disc with agent; for zone of inhibition at 100 µg/disc: agent 0.1 mg per disc
[7] = tested on: E. coli 77 CMY-2-positive; assay: combination disc test CDT-AmpC; format: cell-based; conditions: Escherichia coli, read-out: Diameter of inhibition zone, CAZ-30 disc with agent; for zone of inhibition at 100 µg/disc: agent 0.1 mg per disc
[8] = tested on: E. coli 77 CMY-2-positive; assay: checkerboard microdilution, antibiotic plus tested agent; format: cell-based, Escherichia coli
Outline: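 Read-out is the antibiotic MIC with agent present, plus FICI = combined/alone MIC ratios summed for both partners. Meropenem pairs served for carbapenemase strains and ceftazidime pairs for the AmpC strain. Agent or PBA was tested at 4–16 mg/L.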

[9] = MTT-based viability assay; format: cell-based; conditions: human
Outline: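 Percent viable cells relative to control, measured in triplicate by MTT read-out at 570 nm. Cells: MRC-5 human fibroblasts cultured at 37 °C, 5% CO2 in MEME plus 10% FBS.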

B. subtilis ATCC 6633 = assay: direct antimicrobial activity (disc-diffusion); format: cell-based; conditions: Bacillus subtilis, ATCC6633; 0.4 mg per disc, 9 mm disc (linezolid 0.03 mg, 6 mm disc); - no zone; read-out: Diameter of inhibition zone
Experimental: Direct antimicrobial activity against Gram-negative and Gram-positive bacterial strains, as well as against yeast, was examined as previously described by the disc-diffusion test, the MIC determination assay, the MBC (for bacteria), and the MFC (for yeasts) determination tests. All the above-mentioned tests were performed according to EUCAST [71, 72] and CLSI [73, 74, 75, 76, 77] recommendations. The following reference agents were used: nitrofurantoin (for Gram-negative rods), linezolid (for Gram-positive bacteria), and fluconazole (in the case of fungi). The new aromatic diboronic acids were dissolved in DMSO (Sigma, St. Louis, MO, USA). In the disc-diffusion test, the concentration of new agents was 0.4 mg per disc.

[10] = 0.4 mg per disc, 9 mm disc (linezolid 0.03 mg, 6 mm disc), - no zone, read-out: Diameter of inhibition zone
[11] = MRC-5 human fibroblasts, 12.5 mg/L, 72 h, read-out: Viability of MRC-5 cells (% of viable cells ± SD)
[12] = MRC-5 human fibroblasts, 25 mg/L, 72 h, read-out: Viability of MRC-5 cells (% of viable cells ± SD)
[13] = MRC-5 human fibroblasts, 50 mg/L, 72 h, read-out: Viability of MRC-5 cells (% of viable cells ± SD)

MIC (E. faecalis ATCC 29212) | MIC (E. faecium ATCC 6057) | MIC [1] | MIC (S. aureus ATCC 6538P) | MIC [2] | MIC [3] | MIC [4] | MIC (C. krusei ATCC 6258) | MIC (C. albicans ATCC 90028) | MIC (C. tropicalis ATCC 750) | MIC (C. tropicalis IBA 171) | MIC (S. cerevisiae ATCC 9763) | SMILES | zone of inhibition at 0.4 mg/disc [3] | zone of inhibition at 0.4 mg/disc [4] | zone of inhibition at 0.4 mg/disc (C. krusei ATCC 6258) | zone of inhibition at 0.4 mg/disc (C. albicans ATCC 90028) | zone of inhibition at 0.4 mg/disc (C. tropicalis ATCC 750) | zone of inhibition at 0.4 mg/disc (C. tropicalis IBA 171) | zone of inhibition at 0.4 mg/disc (S. cerevisiae ATCC 9763) | Average FICI with ceftazidime [8] | other results
400 µg/mL (≈ 2530 µM) | 400 µg/mL (≈ 2530 µM) | 100 µg/mL (≈ 633 µM) | 50 µg/mL (≈ 317 µM) | 100 µg/mL (≈ 633 µM) | 25 µg/mL (≈ 158 µM) | 25 µg/mL (≈ 158 µM) | 50 µg/mL (≈ 317 µM) | 25 µg/mL (≈ 158 µM) | 50 µg/mL (≈ 317 µM) | 25 µg/mL (≈ 158 µM) | 50 µg/mL (≈ 317 µM) | OB(O)c1cc(F)ccc1F [7a, 2,5-difluorophenylboronic acid] | 21 mm | 33 mm | 15 mm | 29 mm | 21 mm | 25 mm | 18 mm | 0.17 | zone of inhibition at 30 µg/disc ([5]; agent 0.03 mg per disc): 13 mm; zone of inhibition at 30 µg/disc ([6]; agent 0.03 mg per disc): 17 mm; zone of inhibition at 30 µg/disc ([7]; agent 0.03 mg per disc): 19 mm; The lowest FICI with ceftazidime [8]: 0.14; viability at 72 h, 12.5 mg/L [9]: 83 ± 2.9%; viability at 72 h, 25 mg/L [9]: 79.9 ± 3.7%; viability at 72 h, 50 mg/L [9]: 67.3 ± 3.1%
200 µg/mL (≈ 618 µM) | 200 µg/mL (≈ 618 µM) | 100 µg/mL (≈ 309 µM) | 25 µg/mL (≈ 77.3 µM) | 50 µg/mL (≈ 155 µM) | 50 µg/mL (≈ 155 µM) | 25 µg/mL (≈ 77.3 µM) | 50 µg/mL (≈ 155 µM) | 12.5 µg/mL (≈ 38.6 µM) | 50 µg/mL (≈ 155 µM) | 25 µg/mL (≈ 77.3 µM) | 50 µg/mL (≈ 155 µM) | OB(O)c1cc(Br)c(B(O)O)cc1Br [1i] | 24 mm | 34 mm | 22 mm | 31 mm | 25 mm | 29 mm | 24 mm |  | zone of inhibition at 0.4 mg/disc (E. faecalis ATCC 29212; [10]): 14 mm; zone of inhibition at 0.4 mg/disc (E. faecium ATCC 6057; [10]): 11 mm; zone of inhibition at 0.4 mg/disc [1]: 11 mm; zone of inhibition at 0.4 mg/disc (S. aureus ATCC 6538P): 14 mm; zone of inhibition at 0.4 mg/disc [2, 10]: 21 mm; zone of inhibition at 0.4 mg/disc (B. subtilis ATCC 6633): 18 mm; zone of inhibition at 100 µg/disc [5]: 6 mm; zone of inhibition at 100 µg/disc [6]: 16 mm; zone of inhibition at 100 µg/disc [7]: 16 mm; viability at 72 h, 12.5 mg/L [9, 11]: 122%; viability at 72 h, 25 mg/L [9, 12]: 114 ± 4.8%; viability at 72 h, 50 mg/L [9, 13]: 101.4 ± 0.9%
400 µg/mL (≈ 1980 µM) | 400 µg/mL (≈ 1980 µM) | 100 µg/mL (≈ 496 µM) | 50 µg/mL (≈ 248 µM) | 50 µg/mL (≈ 248 µM) | > 400 µg/mL | > 400 µg/mL | > 400 µg/mL | > 400 µg/mL | > 400 µg/mL | > 400 µg/mL | > 400 µg/mL | OB(O)c1cc(B(O)O)c(F)cc1F [2c] |  |  |  |  |  |  |  | 0.21 | zone of inhibition at 0.4 mg/disc [1]: 19 mm; zone of inhibition at 0.4 mg/disc (S. aureus ATCC 6538P): 20 mm; zone of inhibition at 100 µg/disc [5]: 6 mm; zone of inhibition at 100 µg/disc [6]: 20 mm; zone of inhibition at 100 µg/disc [7]: 19 mm; The lowest FICI with ceftazidime [8]: 0.17; viability at 72 h, 12.5 mg/L [9, 11]: 89.1 ± 0.5%; viability at 72 h, 25 mg/L [9, 12]: 83.6 ± 2.7%; viability at 72 h, 50 mg/L [9, 13]: 63.8 ± 2.5%
